Laboratory results as given in patent US20220275389A1, “MODIFIED EXOPOLYSACCHARIDE RECEPTORS FOR RECOGNIZING AND STRUCTURING MICROBIOTA” (Aarhus Universitet, priority 2019, published 2022).
“Also recorded” adds a separate entry of the source. Like-named read-outs stand apart in the source and are kept apart here.

Tests used:
[1] = molecular target: Lotus japonicus EPR3 ectodomain (EPR3 ED, residues 33-232), wild type, EPR3 SEQ ID NO: 61 (Lotus japonicus, UniProt D3KU53); assay: Microscale thermophoresis (MST) binding of EPS ligands to EPR3 ectodomain (ED); details: 100 nM EPR3 ED, pH 7.8, 25° C.; for Kd: 95% confidence interval, read-out: equilibrium dissociation constant (Kd)
Lotus japonicus EPR3 ectodomain (EPR3 ED, residues 33-232), wild type, EPR3 SEQ ID NO: 61, sequence (D3KU53 entry or part of it): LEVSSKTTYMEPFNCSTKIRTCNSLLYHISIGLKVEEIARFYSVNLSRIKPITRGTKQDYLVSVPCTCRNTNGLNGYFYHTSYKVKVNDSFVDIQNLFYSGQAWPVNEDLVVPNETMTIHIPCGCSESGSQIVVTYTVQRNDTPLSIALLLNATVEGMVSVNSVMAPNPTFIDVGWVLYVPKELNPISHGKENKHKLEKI
Description: Expression and purification of L. japonicus ecotype Gifu EPR3 ectodomain (ED) was performed as described previously (Kawaharada, Y et al. Nature 2015 523: 308-312). In brief, DNA encoding residues 33-232 of EPR3 (corresponding to the EPR3 ED) containing an N-terminal gp67 secretion signal and a C-terminal 6×His-tag was codon-optimized for insect cell expression (GenScript) and inserted into the pOET2 vector (Oxford Expression Technologies). Baculoviruses, used for infecting Sf9 cells cultured in suspension in serum-free HyClone SFX-Insect medium (FisherScientific), were obtained using the flashBAC GOLD system (OET). Five days post inoculation, the media was dialyzed against buffer containing 50 mM Tris-HCl pH 8.0 and 200 mM NaCl before centrifugation and loaded on a HisTrap excel affinity column (GE Healthcare). The eluted protein was dialyzed against buffer containing 50 mM Tris-HCl pH 8.0 and 200 mM NaCl, and further purified on a HisTrap HP affinity column (GE Healthcare). For crystallization, the EPR3 ED was treated with PNGase F (1:15 w/w ratio) for 1 hour at room temperature and overnight at 4° C. to remove N-linked oligosaccharides. EPR3 ED was then purified on a Mono S 5/50 column (GE Healthcare) and eluted with a linear gradient of 50-300 mM NaCl and 50 mM Tris-HCl, pH 7.0. Both glycosylated and de-glycosylated EPR3 ED were finally purified on a Superdex 75 10/300 column (GE Healthcare) in gel filtration buffer containing 50 mM KH2-PO4 pH 7.8 and 200 mM NaCl (for microscale thermophoresis binding experiments) or 50 mM Tris-HCl pH 8.0 and 200 mM NaCl (for crystallization).
Low molecular mass (LMM) exopolysaccharides (EPS) were isolated from various rhizobial strains including Mesorhizobium loti strain R7A ndvB6, R. leguminosarum bv. viciae 3855 (this work) and Sinorhizobium meliloti B578 (Griffins, J. S. et al. Mol. Microbiol. 2008 69: 479-490) that were deficient in cyclic glucan production were grown on minimal media with glucose as the sole source of carbon. The LMM EPS was isolated from the bacterial culture supernatants and purified via sequential precipitation with 6 volumes of 99.8% EtOH (v/v), followed by 9 volumes EtOH (v/v) and purified by size exclusion chromatography (SEC) as previously described (Muszyński, A. et al. J. Biol. Chem. 2016 291: 20946-20961). O-acetyl groups were removed chemically by mild overnight treatment of native EPS samples with 12.5% NH4OH (Muszyński, A. et al. J. Biol. Chem. 2016 291: 20946-20961). […] The glycosyl composition and linkage was determined as previously described (Muszyński, A. et al. J. Biol. Chem. 2016 291: 20946-20961). […]

[2] = molecular target: Lotus japonicus EPR3a ectodomain (EPR3a ED), wild type, EPR3a SEQ ID NO: 62; assay: Microscale thermophoresis (MST) binding of polysaccharides to EPR3a ectodomain (ED); details: for Kd: FIGS. 11E-11H, preparation of FIG. 11D
Description: Low molecular mass (LMM) exopolysaccharides (EPS) were isolated from various rhizobial strains including Mesorhizobium loti strain R7A ndvB6, R. leguminosarum bv. viciae 3855 (this work) and Sinorhizobium meliloti B578 (Griffins, J. S. et al. Mol. Microbiol. 2008 69: 479-490) that were deficient in cyclic glucan production were grown on minimal media with glucose as the sole source of carbon. The LMM EPS was isolated from the bacterial culture supernatants and purified via sequential precipitation with 6 volumes of 99.8% EtOH (v/v), followed by 9 volumes EtOH (v/v) and purified by size exclusion chromatography (SEC) as previously described (Muszyński, A. et al. J. Biol. Chem. 2016 291: 20946-20961). O-acetyl groups were removed chemically by mild overnight treatment of native EPS samples with 12.5% NH4OH (Muszyński, A. et al. J. Biol. Chem. 2016 291: 20946-20961). Native and de-O-acetylated samples were verified via matrix-assisted laser desorption/ionization time of flight mass spectrometry (MALDI-TOF MS) analysis on Applied Biosystems AB SCIEX TOF/TOF 5800 system in either negative or positive reflector ionization modes. The glycosyl composition and linkage was determined as previously described (Muszyński, A. et al. J. Biol. Chem. 2016 291: 20946-20961).
Purified EPR3 was fluorescently labeled using the Monolith NT.115TM Protein Labelling Kit Blue NHS (NanoTemper Technologies) according to the manufacturer's instructions. […] To accurately account for this unspecific binding ligand binding to 50 nM free fluorescent label was measured and this small background was subtracted contribution from all the respective MST binding measurements. […] Binding data were processed with the GraphPad Prism 7 software (GraphPad Software, Inc.) and the equilibrium dissociation constants (Kd) values (95% confidence interval) were calculated using the sigmoidal dose-response equations. […]

L. japonicus EPR3a ED = assay: Microscale thermophoresis (MST) binding to EPR3a ED; details: for binding of EPR3a ED to polysaccharide (detectable or not): FIGS. 11I-11J
Description: Purified EPR3 was fluorescently labeled using the Monolith NT.115TM Protein Labelling Kit Blue NHS (NanoTemper Technologies) according to the manufacturer's instructions. All experiments were performed in MST buffer (50 mM K2PO4, pH 7.8, 500 mM NaCl, and 0.05% Tween-20) with a constant concentration of EPR3 ED (100 nM and ˜50% labelling efficiency) and dilution series of the various ligands. The samples were incubated for 30 minutes at room temperature before loaded into standard capillaries for measurements on a Monolith NT.115 TM instrument (NanoTemper Technologies) at 25° C., with blue LED power of 50% and MST power of 20%. To accurately measure the experimental errors and ensure data reproducibility, all MST binding experiments were performed with at least three independently purified samples of EPR3. At the highest ligand concentrations, weak ligand binding to the fluorescent label itself was occasionally observed. To accurately account for this unspecific binding ligand binding to 50 nM free fluorescent label was measured and this small background was subtracted contribution from all the respective MST binding measurements. The competition experiments were performed by pre-incubating labeled EPR3 ED with 250 μM R7A EPS or R7A exoU EPS and assessing the binding of EPR3 ED to titrated R7A exoU EPS or R7A EPS, respectively. Binding data were processed with the GraphPad Prism 7 software (GraphPad Software, Inc.) and the equilibrium dissociation constants (Kd) values (95% confidence interval) were calculated using the sigmoidal dose-response equations.
The EPR3a ED was expressed in insect cells, and the protein was purified as described in Example 1 (FIG. 11D).
MST experiments were performed as described in Example 2 (FIG. 11C, FIGS. 11E-11J).

[3] = FIGS. 11E-11H, n=3, EPR3a ED preparation of FIG. 11D (figure legend), read-out: equilibrium dissociation constant (Kd)

For CC(=O)N[C@H]1[C@H](O[C@H]2[C@H](O)[C@@H](NC(C)=O)[C@H](O[C@H]3[C@H](O)[C@@H](NC(C)=O)C(O)O[C@@H]3CO)O[C@@H]2CO)O[C@H](CO)[C@@H](O[C@@H]2O[C@H](CO)[C@@H](O[C@@H]3O[C@H](CO)[C@@H](O[C@@H]4O[C@H](CO)[C@@H](O)[C@H](O)[C@H]4NC(C)=O)[C@H](O)[C@H]3NC(C)=O)[C@H](O)[C@H]2NC(C)=O)[C@@H]1O (stereo partly shown) [C06, Chitohexose], which binding [1] is on record?
Its binding is “unable to bind”.

What does the source list for O=C(O)[C@H]1O[C@@H](O[C@H]2[C@H](O)[C@@H](O)[C@@H](O[C@H]3[C@H](O)[C@@H](O)[C@H](OC[C@H]4O[C@@H](OC[C@H]5O[C@@H](O[C@H]6[C@H](O)[C@@H](O)[C@H](O[C@H]7[C@H](O)[C@@H](O)[C@H](O[C@H]8[C@@H](O)[C@@H](CO)OC(O)[C@@H]8O)O[C@@H]7CO)O[C@@H]6CO)[C@H](O)[C@@H](O)[C@@H]5O)[C@H](O)[C@@H](O)[C@@H]4O)O[C@@H]3CO)O[C@@H]2C(=O)O)[C@H](O)[C@@H]1O (stereo partly shown) [R7A deOAc-EPS]?
Kd [1]: 31.3 ± 11.7 µM; Kd ([2]; n=3, figure legend, read-out: equilibrium dissociation constant (Kd)): 57.2 ± 15.6 µM; Kd ([2]; read-out: equilibrium dissociation constant of Kd): 57.2 ± 15.6 µM

Which “binding of EPR3a ED to polysaccharide (detectable or not)” value (shortened to “binding … (detectable or not)”) (L. japonicus EPR3a ED; n=3) does the source give for CC(=O)N[C@H]1[C@H](O[C@H]2[C@H](O)[C@@H](NC(C)=O)C(O)O[C@@H]2CO)O[C@H](CO)[C@@H](O[C@@H]2O[C@H](CO)[C@@H](O[C@@H]3O[C@H](CO)[C@@H](O)[C@H](O)[C@H]3NC(C)=O)[C@H](O)[C@H]2NC(C)=O)[C@@H]1O (stereo partly shown) [chitotetraose] here?
Its value is “absence of binding”.

And the “binding … (detectable or not)” value (L. japonicus EPR3a ED; n=3, listed as chitin)?
Its value is “did not bind”.

What about the binding ([2]; FIG. 11I, n=3) of the same compound?
The binding was “did not bind; also recorded: absence of binding”.

“(2,3/3-OAc)β-D-RibfA-(1→4)-a-D-GlcpA-(1→4)-β-D-Glcp-(1→6)-(3OAc)β-D-Glcp-(1→6)-(2OAc)β-D-Glcp-(1→4)-(2/3OAc)β-D-Glcp-(1→4)-β-D-Glcp-(1→3)-β-D-Galp [R7A EPS] [listing 1 of 2 here]” was tested. Which Kd (L. japonicus EPR3a ED; FIG. 11C, R^2=0.98, read-out: equilibrium dissociation constant (Kd)) did it give?
The Kd was 25.6 µM.

What about the Kd (L. japonicus EPR3a ED; [3]) of the same compound?
The Kd was 44.4 ± 11.2 µM.

Which Kd [1] does the source give for “(2,3/3-OAc)β-D-RibfA-(1→4)-a-D-GlcpA-(1→4)-β-D-Glcp-(1→6)-(3OAc)β-D-Glcp-(1→6)-(2OAc)β-D-Glcp-(1→4)-(2/3OAc)β-D-Glcp-(1→4)-β-D-Glcp-(1→3)-β-D-Galp [R7A EPS] [listing 2 of 2 here]” here?
Its Kd is 38.1 ± 7.5 µM.

How did the Kd (L. japonicus EPR3a ED; [3]) turn out when S. meliloti EPS [listing 1 of 2 here] was run?
Its Kd is 937 ± 389 µM.

How did the Kd [1] turn out when S. meliloti EPS [listing 2 of 2 here] was run?
The Kd was 222 ± 102 µM.

Which “binding … (detectable or not)” value (L. japonicus EPR3a ED; n=3) does the source give for maltodextrin here?
The value was “did not bind; also recorded: absence of binding”.
